In patent US8759013B2, “Dual-target biosensor cell assays” (Corning Incorporated, priority 2008, dated 2014):

Each molecule was assayed on endogenous receptors in A431 cells (assay: LOPAC library agonist screening with biosensor cellular assay (DMR)). Details: not given.
Assay type: cell-based, human
Procedure: Corning® Epic® wavelength interrogation system was used.
Furthermore, a ligand-induced DMR is a real time kinetic response containing many useful parameters (e.g., phases, amplitudes and kinetics) for analyzing ligand pharmacology. The LOPAC library was used to screen agonists for endogenous receptors in A431 cells using real time kinetic measurements.
First, the response in terms of wavelength shift between before and 2 min after stimulation was calculated.
Second, the responses in terms of wavelength shift between before and 50 min after stimulation were calculated.
Third, the responses in terms of wavelength shift between 2 min and 50 min after stimulation were calculated. The difference in resonant wavelength between the two time points was plotted as a function of compounds (FIG. 8).

Row | Molecule | ligand-induced DMR signal in agonist screening
1 | R(−)-α-methyl-histamine | did not lead to any obvious DMR signal

Same assay, conditions: A431 cells; 1 microM

Row | Molecule | identification of beta-adrenoceptor agonists as hits in the agonist screen
2 | CCCCc1oc2ccccc2c1C(=O)c1cc(I)c(OCCN(CC)CC)c(I)c1 [amiodarone] | false negative
3 | (±)-ephedrine | false negative

Same assay, conditions: A431 cells; compound at 1 microM; real time kinetic

Row | Molecule | ligand-induced DMR signal in agonist screening
4 | CC(C)NCC(O)c1ccc(NS(C)(=O)=O)cc1 (racemic) [(±)-Sotalol] | did not result in any apparent DMR signals
5 | COCCc1ccc(OCC(O)CNC(C)C)cc1 (racemic) [(±)-metoprolol] | did not result in any apparent DMR signals
6 | CC(C)NCC(O)COc1cccc2ccccc12 (racemic) [(±)-propranolol] | did not result in any apparent DMR signals
7 | CC(C)(C)NCC(O)COc1cccc2[nH]c(=O)[nH]c12 (racemic) [(±)CGP12177] | Gs-like DMR which only consists of the prolonged P-DMR event without the initial N-DMR event
8 | CN(C)CCC(c1ccc(Cl)cc1)c1ccccn1 (racemic) [(±)chlorpheniramine] | did not lead to any DMR signal
9 | CN(C)CC[C@@H](c1ccc(Br)cc1)c1ccccn1 [(+)-brompheniramine] | did not lead to any DMR signal
10 | CN(C)CC[C@@H](c1ccc(Cl)cc1)c1ccccn1 [(+)-chlorpheniramine] | did not lead to any DMR signal
11 | CC(C)NC[C@H](O)COc1cccc2ccccc12 [(S)-propranolol] | did not result in any apparent DMR signals
12 | Cc1ccc(OCC(O)C(C)NC(C)C)c2c1CCC2 (stereo not shown) [ICI 118,551] | did not result in any apparent DMR signals
13 | CC(C)NCC(O)c1ccc(O)c(O)c1 (stereo not drawn) [R(−)isoproterenol] | typical Gs-type DMR signal
14 | CC(C)(C)NC[C@H](O)COc1nsnc1N1CCOCC1 [S(−)-timolol] | did not result in any apparent DMR signals
15 | C=CCc1ccccc1OCC(O)CNC(C)C (stereo not shown) [alprenolol] | did not result in any apparent DMR signals
16 | CC(C)NCC(O)COc1ccc(CCOCC2CC2)cc1 (stereo not shown) [betaxolol] | did not result in any apparent DMR signals
17 | CN1CCC[C@@H]1CCO[C@](C)(c1ccccc1)c1ccc(Cl)cc1 [clemastine] | did not lead to any DMR signal
18 | CC(C)(C(=O)O)c1ccc(C(O)CCCN2CCC(C(O)(c3ccccc3)c3ccccc3)CC2)cc1 (stereo not shown) [fexofenadine] | did not lead to any DMR signal
19 | N=C(N)SCCc1cnc[nH]1 [imetit] | did not lead to any obvious DMR signal
20 | CN1CCC(=C2c3ccccc3CC(=O)c3sccc32)CC1 [ketotifen] | did not lead to any DMR signal
21 | CN(C)CCN(Cc1cccs1)c1ccccn1 [methapyrilene] | did not lead to any DMR signal
22 | CC(CN1c2ccccc2Sc2ccccc21)N(C)C (stereo not shown) [promethazine] | did not lead to any DMR signal
23 | COc1ccc(CN(CCN(C)C)c2ccccn2)cc1 [pyrilamine] | did not lead to any DMR signal
24 | CC(C)(C)c1ccc(C(O)CCCN2CCC(C(O)(c3ccccc3)c3ccccc3)CC2)cc1 (stereo not shown) [terfenadine] | did not lead to any DMR signal
25 | (±)isoproterenol | typical Gs-type DMR signal
26 | Ruthernium red | Gs-like DMR signal but with much larger amplitude
27 | S(−)pindolol | Gs-like DMR which only consists of the prolonged P-DMR event without the initial N-DMR event

What follows are molecules tested against histamine receptor subtype 1 (H1R) (Homo sapiens, UniProt P35367) (assay: Dual receptor-specific antagonist screening (LOPAC), histamine response). Details: not given.
Assay type: cell-based
Set-up: endogenous in cells; host or cells: A431 (human epidermoid carcinoma), quiescent after serum starvation

Row | Molecule | effect on the histamine response in the co-stimulation
28 | CN(C)CC[C@@H](c1ccc(Br)cc1)c1ccccn1 [(+)-brompheniramine] | completely or almost completely attenuated

Same assay, conditions: compound 1 microM for one hour, then cocktail of epinephrine and histamine

Row | Molecule | effect on the histamine response in the co-stimulation
29 | Cc1ccc(OCC(O)C(C)NC(C)C)c2c1CCC2 (stereo not shown) [ICI 118,551] | little impact
30 | C=CCc1ccccc1OCC(O)CNC(C)C (stereo not shown) [alprenolol] | little impact
31 | CC(C)NCC(O)COc1ccc(CCOCC2CC2)cc1 (stereo not shown) [betaxolol] | little impact
